Experimental data taken from US20260078103A1, “ISOQUINOLONES AS PI3K INHIBITORS” (OnKure, Inc., priority 2022, published 2026).
Like-named read-outs stand apart in the source and are kept apart here. Values belong to the compound of their own block, whether it stands above or below them.

What was measured:
Format in all cases: cell-based
[1] = test system: T47D cells expressing mutant PI3Ka (H1047R); experiment: In vitro cell proliferation, T47D cells (CellTiter-Glo); settings: inhibition of proliferation, read-out: Avg T-47D EC50
Description: (§1) In Vitro Cell Proliferation: Determination of EC50 Values for Inhibition of Proliferation in T47D Cells Expressing Mutant PI3Ka (H1047R) Mutation and SKBR3 Cells Express WT PI3Ka.
(§2) T47D or SKBR3 cells were trypsinized, resuspended in culture media and seeded onto assay ready plates. T47D culture media consisted of RPMI, 10% FBS and Insulin (0.2 units/mL). SKBR3 culture media consisted of McCoys 5a and 10% FBS. Cells were seeded at a density of 1,500 cells/well and dispensed in 50 μl onto 384 well assay ready plates (Corning, 89089-790). Assay ready plates had previously been stamped with 10-point dilutions of compounds of interest, as well as controls. The Echo655 is used to stamp plates at 40 nL of compound or DMSO. Cells were grown for 72 hours at 37° Celsius and 5% CO2. After 72 hours, cells were equilibrated at room temperature for 15 minutes. 30 μL of CellTiter-Glo reagent is added to the plate, which is then shaken for 30 minutes at temperature at 300-500 rpm. Cells are then read on an Envision plate reader. The percentage of inhibition of proliferation was calculated using the following formula: % Inhibition=100×(LumD−Lumsample)/(LumD−Lumlnh), where D is obtained from cells treated with 0.1% DMSO only; lnh is obtained from cells treated with 10 uM Alpelisib. The effective concentration achieving 50% inhibition of proliferation (EC50) is calculated by fitting the Curve using Xlfit (v5.3.1.3), equation 201: Y=Bottom+(Top−Bottom)/(1+10^((LogEC50−X)*HillSlope)).

[2] = test system: SKBR3 cells express WT PI3Ka; experiment: In vitro cell proliferation, SKBR3 cells (CellTiter-Glo); settings: inhibition of proliferation
Description: as §1, §2

[3] = test system: phosphorylation of AKT (pAKT) in T47D cells expressing mutant PI3Ka (H1047R); experiment: In vitro cell pAKT (Ser473) HTRF, T47D cells
Description: (§3) In Vitro Cell pAKT: Determination of IC50 Values for Inhibition of Phosphorylation of AKT (pAKT) in T47D Cells Expressing Mutant PI3Ka (H1047R) Mutation and SKBR3 Cells Express WT PI3Ka.
(§4) T47D or SKBR3 cells were trypsinized, resuspended in culture media and seeded onto assay ready plates. T47D culture media consisted of RPMI, 10% FBS and Insulin (0.2 units/mL). SKBR3 culture media consisted of McCoy's 5a and 10% FBS. Cells were seeded at a density of 5000 cells/well and dispensed in 12.5 μL onto 384 well assay ready plates (Perkin Elmer, 6008238)). Assay ready plates had previously been stamped with 10-point dilutions of compounds of interest, as well as controls. The Echo655 is used to stamp plates at 12.5 nL of compound or DMSO. Cells were grown for 6 hours at 37° Celsius and 5% CO2. After 6 hours, 4 μL of Lysis buffer reagent was added to the plate, which was then centrifuged for 1 minute at 1000 rpm. Then the plate was incubated at room temperature for 30 minutes. After 30 minutes, 4 μL of antibody mix containing Eu Cryptate, d2 Cryptate, and detection buffer, was added to the plate. The plate was centrifuged for 1 minute at 1000 rpm and then incubated overnight at room temperature. The plate was read on an Envision plate reader using the HTRF protocol. The percentage of inhibition of AKT phosphorylation was calculated using the following formula: % Inhibition=100×(pAKTHC−pAKTSample)/(pAKTHC−pAKTLC)), where pAKTHC is obtained from cells treated with 0.1% DMSO only; PAKTLC is obtained from cells treated with 10 uM Alpelisib. The IC50 (concentration achieving 50% inhibition of pAKT) is calculated by fitting the Curve using XIfit (v5.3.1.3), equation 201: Y=Bottom+(Top−Bottom)/(1+10^((LogIC50−X)*HillSlope)).

[4] = test system: phosphorylation of AKT (pAKT) in SKBR3 cells express WT PI3Ka; experiment: In vitro cell pAKT (Ser473) HTRF, SKBR3 cells; settings: cellular pAKT
Description: as §3, §4

[5] = cellular pAKT, T47D cells, mutant PI3Ka (H1047R), 6 hours; read-out: Avg T-47D IC50

SMILES: Cc1cc(C(C)Nc2ccccc2C(=O)O)c2cc(N3CCC(c4ccccc4)C3)n(C)c(=O)c2c1 (mixture of isomers) [Example 60]
EC50 ([1]; 72 hours): 500 to 2000 nM
EC50 ([2]; 72 hours): > 15000 nM
IC50 [3, 5]: 1 to 500 nM
IC50 ([4]; 6 hours): > 15000 nM

SMILES: Cc1cc(C(C)Nc2ccccc2C(=O)O)c2cc(N3CCN(C(C)C(F)(F)F)CC3)n(C)c(=O)c2c1 (mixture of isomers) [Example 271]
EC50 ([1]; 72 hours): 1 to 500 nM
EC50 ([2]; 72 hours): 2000 to 15000 nM
IC50 [3, 5]: 1 to 500 nM
IC50 ([4]; 6 hours): > 15000 nM

SMILES: Cc1cc(C(C)Nc2ccccc2C(=O)O)c2cc(N3CCC(C)(C)CC3)n(C)c(=O)c2c1 (single isomer, unassigned) [Example 2, 2-((1-(3-(4,4-dimethylpiperidin-1-yl)-2,7-dimethyl-1-oxo-1,2-dihydroisoquinolin-5-yl)ethyl)amino)benzoic acid]
EC50 ([1]; 72 hours): 2000 to 15000 nM
EC50 ([2]; 72 hours): > 15000 nM
IC50 ([3]; read-out: Avg T-47D IC50; cellular pAKT, T47D cells, mutant PI3Ka (H1047R), 6 hours): > 15000 nM
IC50 ([4]; 6 hours): > 15000 nM

SMILES: Cc1cc(C(C)Nc2ccc(Cl)nc2C(=O)O)c2cc(N3CCC(C)(C)CC3)n(C)c(=O)c2c1 (single isomer, unassigned) [Example 3, 6-chloro-3-((1-(3-(4,4-dimethylpiperidin-1-yl)-2,7-dimethyl-1-oxo-1,2-dihydroisoquinolin-5-yl)ethyl)amino)picolinic acid]
EC50 ([1]; 72 hours): 1 to 500 nM
EC50 ([2]; Homo sapiens, SK-BR-3, 72 h): 2000 to 15000 nM
IC50 [3, 5]: 500 to 2000 nM
IC50 ([4]; 6 hours): 2000 to 15000 nM

SMILES: Cc1cc(C(C)Nc2ccc(Cl)nc2C(=O)O)c2cc(N3CCC(C)(C)CC3)n(C)c(=O)c2c1 (single isomer, unassigned) [Example 4, 6-chloro-3-((1-(3-(4,4-dimethylpiperidin-1-yl)-2,7-dimethyl-1-oxo-1,2-dihydroisoquinolin-5-yl)ethyl)amino)picolinic acid]
EC50 ([1]; 72 hours): 2000 to 15000 nM
EC50 ([2]; 72 hours): 2000 to 15000 nM
IC50 [3, 5]: 2000 to 15000 nM
IC50 ([4]; 6 hours): > 15000 nM

SMILES: Cc1cc(C(C)Nc2ccccc2C(=O)O)c2cc(C3=CCC(C)(C)CC3)n(C)c(=O)c2c1 (single isomer, unassigned) [Example 5, 2-((1-(3-(4,4-dimethylcyclohex-1-en-1-yl)-2,7-dimethyl-1-oxo-1,2-dihydroisoquinolin-5-yl)ethyl)amino)benzoic acid]
EC50 ([1]; 72 hours): 2000 to 15000 nM
EC50 ([2]; 72 hours): > 15000 nM
IC50 [3, 5]: 2000 to 15000 nM
IC50 ([4]; 6 hours): > 15000 nM

SMILES: Cc1cc(C(C)Nc2ccccc2C(=O)O)c2cc(C3=CCC(C)(C)CC3)n(C)c(=O)c2c1 (single isomer, unassigned) [Example 6, 2-((1-(3-(4,4-dimethylcyclohex-1-en-1-yl)-2,7-dimethyl-1-oxo-1,2-dihydroisoquinolin-5-yl)ethyl)amino)benzoic acid]
EC50 ([1]; 72 hours): 1 to 500 nM
EC50 ([2]; 72 hours): 2000 to 15000 nM
IC50 [3, 5]: 1 to 500 nM
IC50 ([4]; 6 hours): 2000 to 15000 nM

SMILES: Cc1cc(C(C)Nc2ccccc2C(=O)O)c2cc(N3CCN(CC(F)(F)F)CC3)n(C)c(=O)c2c1 (single isomer, unassigned) [Example 9, 2-((1-(2,7-dimethyl-1-oxo-3-(4-(2,2,2-trifluoroethyl)piperazin-1-yl)-1,2-dihydroisoquinolin-5-yl)ethyl)amino)benzoic acid]
EC50 ([1]; 72 hours): 2000 to 15000 nM
EC50 ([2]; 72 hours): > 15000 nM
IC50 [3, 5]: 2000 to 15000 nM
IC50 ([4]; 6 hours): > 15000 nM

SMILES: Cc1cc(C(C)Nc2ccccc2C(=O)O)c2cc(N3Cc4cccnc4C3)n(C)c(=O)c2c1 (single isomer, unassigned) [Example 18, 2-((1-(3-(5,7-dihydro-6H-pyrrolo[3,4-b]pyridin-6-yl)-2,7-dimethyl-1-oxo-1,2-dihydroisoquinolin-5-yl)ethyl)amino)benzoic acid]
EC50 ([1]; 72 hours): 2000 to 15000 nM
EC50 ([2]; Homo sapiens, SK-BR-3, 72 h): 2000 to 15000 nM
IC50 [3, 5]: > 15000 nM
IC50 ([4]; Homo sapiens, SK-BR-3, 6 h): > 15000 nM

SMILES: Cc1cc(C(C)Nc2ccccc2C(=O)O)c2cc(N3Cc4ccc(F)cc4C3)n(C)c(=O)c2c1 (single isomer, unassigned) [Example 50]
EC50 ([1]; 72 hours): 2000 to 15000 nM
EC50 ([2]; 72 hours): > 15000 nM

SMILES: Cc1cc(C(C)Nc2ccccc2C(=O)O)c2cc(C3CCC(C)(C)CC3)n(C)c(=O)c2c1 (single isomer, unassigned) [Example 51]
EC50 ([1]; 72 hours): 2000 to 15000 nM
EC50 ([2]; 72 hours): > 15000 nM

SMILES: Cc1cc(C(C)Nc2ccccc2C(=O)O)c2cc(C3CCC(C)(C)CC3)n(C)c(=O)c2c1 (single isomer, unassigned) [Example 52]
EC50 ([1]; 72 hours): 1 to 500 nM
EC50 ([2]; 72 hours): 2000 to 15000 nM

SMILES: Cc1ccc(N[C@H](C)c2cc(F)cc3c(=O)n(C)c(C4CC4C4CC4)cc23)c(C(=O)O)n1 (stereo in doubt) [Example 46, -(((R)-1-(3-(trans-[1,1′-bi(cyclopropan)]-2-yl)-7-fluoro-2-methyl-1-oxo-1,2-dihydroisoquinolin-5-yl)ethyl)amino)-6-methylpicolinic acid]
EC50 ([1]; 72 hours): 500 to 2000 nM
IC50 [3, 5]: 1 to 500 nM
IC50 ([4]; 6 hours): > 15000 nM

SMILES: Cc1cc(C(C)Nc2ccccc2C(=O)O)c2cc(N3C[C@@H]4[C@@H](C#N)[C@@H]4C3)n(C)c(=O)c2c1 (stereo partly drawn) [Example 16, 2-((1-(3-((1R,5S,6r)-6-cyano-3-azabicyclo[3.1.0]hexan-3-yl)-2,7-dimethyl-1-oxo-1,2-dihydroisoquinolin-5-yl)ethyl)amino)benzoic acid]
EC50 ([1]; 72 hours): 2000 to 15000 nM
IC50 [3, 5]: > 15000 nM

Other lines, results leading:

EC50 ([1]; 72 hours): 500 to 2000 nM
EC50 ([2]; 72 hours): > 15000 nM
IC50 [3, 5]: 500 to 2000 nM
IC50 ([4]; 6 hours): > 15000 nM
SMILES: Cc1cc(C(C)Nc2ccccc2C(=O)O)c2cc(N3CC4CN(CC(F)(F)F)CC4C3)n(C)c(=O)c2c1 (mixture of isomers) [Example 90]

EC50 ([1]; 72 hours): 2000 to 15000 nM
EC50 ([2]; Homo sapiens, SK-BR-3, 72 h): 2000 to 15000 nM
IC50 [3, 5]: > 15000 nM
IC50 ([4]; 6 hours): > 15000 nM
SMILES: Cc1cc(C(C)Nc2ccccc2C(=O)O)c2cc(N3CC4CCC(C4)C3)n(C)c(=O)c2c1 (single isomer, unassigned) [Example 10, 2-((1-(3-(3-azabicyclo[3.2.1]octan-3-yl)-2,7-dimethyl-1-oxo-1,2-dihydroisoquinolin-5-yl)ethyl)amino)benzoic acid]

EC50 ([1]; 72 hours): 1 to 500 nM
EC50 ([2]; 72 hours): 2000 to 15000 nM
IC50 [3, 5]: 1 to 500 nM
IC50 ([4]; 6 hours): 2000 to 15000 nM
SMILES: Cc1cc(C(C)Nc2ccccc2C(=O)O)c2cc(N3CC4CCC(C4)C3)n(C)c(=O)c2c1 (single isomer, unassigned) [Example 11, 2-((1-(3-(3-azabicyclo[3.2.1]octan-3-yl)-2,7-dimethyl-1-oxo-1,2-dihydroisoquinolin-5-yl)ethyl)amino)benzoic acid]

EC50 ([1]; 72 hours): > 15000 nM
EC50 ([2]; Homo sapiens, SK-BR-3, 72 h): > 15000 nM
IC50 [3, 5]: > 15000 nM
IC50 ([4]; Homo sapiens, SK-BR-3, 6 h): > 15000 nM
SMILES: Cc1cc(C(C)Nc2ccccc2C(=O)O)c2cc(N3CCN(C)CC3)n(C)c(=O)c2c1 (single isomer, unassigned) [Example 12, 2-((1-(2,7-dimethyl-3-(4-methylpiperazin-1-yl)-1-oxo-1,2-dihydroisoquinolin-5-yl)ethyl)amino)benzoic acid]

EC50 ([1]; 72 hours): 500 to 2000 nM
EC50 ([2]; 72 hours): > 15000 nM
IC50 [3, 5]: 500 to 2000 nM
IC50 ([4]; 6 hours): > 15000 nM
SMILES: Cc1cc(C(C)Nc2ccccc2C(=O)O)c2cc(N3CCN(C)CC3)n(C)c(=O)c2c1 (single isomer, unassigned) [Example 13, 2-((1-(2,7-dimethyl-3-(4-methylpiperazin-1-yl)-1-oxo-1,2-dihydroisoquinolin-5-yl)ethyl)amino)benzoic acid]

EC50 ([1]; Homo sapiens, T47D, 72 h): 2000 to 15000 nM
EC50 ([2]; Homo sapiens, SK-BR-3, 72 h): > 15000 nM
SMILES: Cc1cc(C(C)Nc2ccccc2C(=O)O)c2cc(N3CC(c4ccccc4)C3)n(C)c(=O)c2c1 (centres unmarked) [Example 53]

EC50 ([1]; Homo sapiens, T47D, 72 h): 2000 to 15000 nM
EC50 ([2]; Homo sapiens, SK-BR-3, 72 h): > 15000 nM
SMILES: CC(=O)N1CCN(c2cc3c(C(C)Nc4ccccc4C(=O)O)cc(C)cc3c(=O)n2C)CC1 (centres unmarked) [Example 54]
